The values below come from patent publication US20130344026A1, “Dimeric Smac Mimetics” (priority 2009, published 2013).

In one test the test system is PANC-1 cells. In words: cell viability assay in PANC-1 cells (compound alone, + 100 ng/ml TNFa, + 300 ng/ml TRAIL). Format: cell-based. Conditions: Homo sapiens, PANC-1; compound alone; Tables 6-10; read-out: IC50 (μM) in cell viability assay in PANC-1 cells: Compound alone.
`CN[C@@H](C)C(=O)N[C@H](C(=O)N1C[C@@H](NC(=O)c2cccc(C(=O)N[C@H]3C[C@@H](C(=O)NC4CCCc5cccc(F)c54)N(C(=O)[C@@H](NC(=O)[C@H](C)NC)C(C)(C)C)C3)c2)C[C@H]1C(=O)NC1CCCc2cccc(F)c21)C(C)(C)C` (single isomer, unassigned) [Compound 70]: the IC50 is above 1 µM.

Staying with this test, now noted: with 100 ng/ml TNFa; Tables 6-10; read-out: IC50 (μM) in cell viability assay in PANC-1 cells: Compound + 100 ng/ml TNFa.
As to `CN[C@@H](C)C(=O)N[C@H](C(=O)N1C[C@@H](NC(=O)c2cccc(C(=O)N[C@H]3C[C@@H](C(=O)NC4CCCc5cccc(F)c54)N(C(=O)[C@@H](NC(=O)[C@H](C)NC)C(C)(C)C)C3)c2)C[C@H]1C(=O)NC1CCCc2cccc(F)c21)C(C)(C)C` (single isomer, unassigned) [Compound 70], the IC50 is 0.0011 µM.

Staying with this test, now noted: with 300 ng/ml TRAIL; Tables 6-10; read-out: IC50 (μM) in cell viability assay in PANC-1 cells: Compound + 300 ng/ml TRAIL.
For the compound `CN[C@@H](C)C(=O)N[C@H](C(=O)N1C[C@@H](NC(=O)c2cccc(C(=O)N[C@H]3C[C@@H](C(=O)NC4CCCc5cccc(F)c54)N(C(=O)[C@@H](NC(=O)[C@H](C)NC)C(C)(C)C)C3)c2)C[C@H]1C(=O)NC1CCCc2cccc(F)c21)C(C)(C)C` (single isomer, unassigned) [Compound 70], the IC50 is 0.0033 µM.

The next test deals with HCC461. Briefly: cell viability assay in HCC461, compound alone. Type of test: cell-based. Conditions: HCC461, HCC461; Tables 6-9; read-out: IC50 (μM) in cell viability assay in HCC461.
Consider `CCC[C@H](NC(=O)[C@H](C)NC)C(=O)N1C[C@@H](NC(=O)c2cccc(C(=O)N[C@H]3C[C@@H](C(=O)N[C@@H]4CCCc5ccccc54)N(C(=O)[C@@H](NC(=O)[C@H](C)NC)C(C)(C)C)C3)c2)C[C@H]1C(=O)N[C@H](C)C(C)C` [Compound 140], for which the IC50 turned out to be 0.28 µM.

Turning to `CN[C@@H](C)C(=O)N[C@@H](CCC(=O)OC)C(=O)N1C[C@@H](NC(=O)c2cccc(C(=O)N[C@H]3C[C@@H](C(=O)N[C@H](C)c4ccccc4)N(C(=O)[C@@H](NC(=O)[C@H](C)NC)C(C)(C)C)C3)c2)CC1C(=O)N[C@H](C)c1ccccc1` (stereo partly shown) [Compound 150], the IC50 was found to be 0.121 µM.

With `CN[C@@H](C)C(=O)N[C@@H](CCCCNC(=O)c1cccc(C(=O)NCCCC[C@H](NC(=O)[C@H](C)NC)C(=O)N2CCCC[C@H]2C(=O)N[C@@H]2CCCc3ccccc32)c1)C(=O)N1CCCC[C@H]1C(=O)N[C@@H]1CCCc2ccccc21` [Compound 142], the IC50 is above 30 µM.

Consider `CC[C@H](NC(=O)[C@H](C)NC)C(C)N[C@@H](CNC(=O)c1cccc(C(=O)N[C@H]2C[C@@H](C(=O)N[C@@H]3CCCc4ccccc43)N(C(=O)[C@@H](NC(=O)[C@H](C)NC)C(C)(C)C)C2)c1)C(=O)N[C@H](C)C(C)C` (stereo partly shown) [Compound 137], for which the IC50 came to 6.97 µM.

Take `CN[C@@H](C)C(=O)N[C@@H](CCCCNC(=O)c1cccc(C(=O)N[C@H]2C[C@@H](C(=O)N[C@@H]3CCCc4ccccc43)N(C(=O)[C@@H](NC(=O)[C@H](C)NC)C(C)(C)C)C2)c1)C(=O)N1CC=C[C@H]1C(=O)N[C@@H]1CCCc2ccccc21` [Compound 144]: the IC50 stood at 0.043 µM.

The test is the same for the next values; noted with them: HCC461, HCC461; Tables 15-18; read-out: IC50 (uM) in cell viability assay in HCC461.
As to `CN[C@@H](C)C(=O)N[C@H](C(=O)N1CCC[C@H]1C(=O)NC1c2ccccc2-c2ccccc21)[C@@H](C)OCCCCCCO[C@H](C)[C@H](NC(=O)[C@H](C)NC)C(=O)N1CCC[C@H]1C(=O)NC1c2ccccc2-c2ccccc21` [Compound P2-16], the IC50 was determined as 0.03 µM.

On to `CN[C@@H](C)C(=O)N[C@@H](CCCCCC[C@H](NC(=O)[C@H](C)NC)C(=O)N1CCC[C@H]1C(=O)NCc1ccc(F)cc1)C(=O)N1CCC[C@H]1C(=O)NCc1ccc(F)cc1` [Compound P2-7], for which the IC50 was 0.17 µM.

As for `CN[C@@H](C)C(=O)N[C@H](C(=O)N1CCC[C@H]1C(=O)N[C@H](CNC(=O)c1cccc(C(=O)NC[C@@H](NC(=O)[C@@H]2CCCN2C(=O)[C@@H](NC(=O)[C@H](C)NC)C2CCCCC2)C2CCCCC2)c1)C1CCCCC1)C1CCCCC1` [Compound P4-16], the IC50 was 0.13 µM.

For `C[C@@H](C(=O)N[C@@H](CC#CC#CC[C@H](NC(=O)[C@H](C)N(C)C(=O)C(F)(F)F)C(=O)N1CCC[C@H]1C(=O)N[C@@H]1CCCc2ccccc21)C(=O)N1CCC[C@H]1C(=O)N[C@@H]1CCCc2ccccc21)N(C)C(=O)C(F)(F)F` [Compound P2-18], the IC50 worked out at 0.031 µM.

The test is the same for the next values; noted with them: HCC461, HCC461 cells, compound alone; read-out: IC50 (uM) in cell viability assay in HCC461.
As for `CN[C@@H](C)C(=O)N[C@H](C(=O)N1C[C@@H](NC(=O)c2cc(NC(C)=O)cc(C(=O)N[C@H]3C[C@@H](C(=O)N[C@@H]4CCCc5ccccc54)N(C(=O)[C@@H](NC(=O)[C@H](C)NC)C(C)(C)C)C3)c2)C[C@H]1C(=O)N[C@@H]1CCCc2ccccc21)C(C)(C)C` [Compound P3-42], the IC50 was determined as 0.011 µM.

Regarding `CN[C@@H](C)C(=O)N[C@H](C(=O)N1C[C@@H](NC(=O)CCC(=O)N[C@H]2C[C@@H](C(=O)NC3CCCc4ccccc43)N(C(=O)[C@@H](NC(=O)[C@H](C)NC)C(C)(C)C)C2)C[C@H]1C(=O)NC1CCCc2ccccc21)C(C)(C)C` (stereo partly shown) [Compound P3-1], the IC50 worked out at 0.022 µM.

On to `C#CC[C@H](NC(=O)[C@H](C)NC)C(=O)N1C[C@@H](NC(=O)c2ccc(C(=O)N[C@H]3C[C@@H](C(=O)N[C@@H]4CCCc5ccccc54)N(C(=O)[C@H](CC#C)NC(=O)[C@H](C)NC)C3)cc2)C[C@H]1C(=O)N[C@@H]1CCCc2ccccc21` [Compound P3-4], for which the IC50 was 0.006 µM.

Take `CN[C@@H](C)C(=O)N[C@H](C(=O)N1C[C@@H](NC(=O)c2cc(N)cc(C(=O)N[C@H]3C[C@@H](C(=O)N[C@H](C)C4CCCCC4)N(C(=O)[C@@H](NC(=O)[C@H](C)NC)C(C)(C)C)C3)c2)C[C@H]1C(=O)N[C@H](C)C1CCCCC1)C(C)(C)C` [Compound P3-44]: the IC50 worked out at 0.04 µM.

For `CN[C@@H](C)C(=O)N[C@H](C(=O)N1C[C@@H](NC(=O)c2cccc(C(=O)N[C@H]3C[C@@H](C(=O)N[C@@H]4CCCc5ccccc54)N(C(=O)[C@@H](NC(=O)[C@H](C)NC)C4CCCCC4)C3)c2)C[C@H]1C(=O)N[C@@H]1CCCc2ccccc21)C1CCCCC1` [Compound P3-53], the IC50 stood at 0.01 µM.

In the case of `CN[C@@H](C)C(=O)N[C@H](C(=O)N1C[C@@H](NC(=O)c2ccc(C(=O)N[C@H]3C[C@@H](C(=O)NC4c5ccccc5-c5ccccc54)N(C(=O)[C@@H](NC(=O)[C@H](C)NC)C(C)(C)C)C3)cc2)C[C@H]1C(=O)NC1c2ccccc2-c2ccccc21)C(C)(C)C` [Compound P3-2], the IC50 was found to be 0.02 µM.

With `CN[C@@H](C)C(=O)N[C@H](C(=O)N1C[C@@H](NC(=O)c2cc(C(=O)N[C@H]3C[C@@H](C(=O)NCc4ccc(F)cc4)N(C(=O)[C@@H](NC(=O)[C@H](C)NC)C(C)(C)C)C3)[nH]n2)C[C@H]1C(=O)NCc1ccc(F)cc1)C(C)(C)C` [Compound P3-72], the IC50 came out at 0.023 µM.

Turning to `CN[C@@H](C)C(=O)N[C@H](C(=O)N1C[C@@H](NC(=O)CNCC(=O)N[C@H]2C[C@@H](C(=O)N[C@@H]3CCCc4ccccc43)N(C(=O)[C@@H](NC(=O)[C@H](C)NC)C(C)(C)C)C2)C[C@H]1C(=O)N[C@@H]1CCCc2ccccc21)C(C)(C)C` [Compound P3-35], the IC50 was determined as 0.048 µM.

Turning to `C#CC[C@H](NC(=O)[C@H](C)NC)C(=O)N1C[C@@H](NC(=O)c2cccc(C(=O)N[C@H]3C[C@@H](C(=O)N[C@@H]4CCCc5ccccc54)N(C(=O)[C@H](CC#C)NC(=O)[C@H](C)NC)C3)c2)C[C@H]1C(=O)N[C@@H]1CCCc2ccccc21` [Compound P3-12], the IC50 is 0.047 µM.

Still in this test, the particulars now being: HCC461; Tables 15-18; read-out: IC50 (uM) in cell viability assay in HCC461.
`CC[C@H](NC)C(=O)N[C@@H](CC#CC#CC[C@H](NC(=O)[C@H](CC)NC)C(=O)N1CCC[C@H]1C(=O)N[C@@H]1CCCc2ccccc21)C(=O)N1CCC[C@H]1C(=O)N[C@@H]1CCCc2ccccc21` [Compound P2-9]: the IC50 amounted to 0.025 µM.

Still in this test, the particulars now being: HCC461 cells, compound alone; read-out: IC50 (uM) in cell viability assay in HCC461.
`CN[C@@H](C)C(=O)N[C@H](C(=O)N1C[C@@H](NC(=O)c2cccc(C(=O)N[C@H]3C[C@@H](C(=O)NC4CCCC5CCCCC54)N(C(=O)[C@@H](NC(=O)[C@H](C)NC)C(C)(C)C)C3)c2)C[C@H]1C(=O)NC1CCCC2CCCCC21)C(C)(C)C` (stereo partly shown) [Compound P3-57]: the IC50 amounted to 1.69 µM.

Consider `CN[C@@H](C)C(=O)N[C@H](C(=O)N1C[C@@H](NC(=O)C2CCCC(C(=O)N[C@H]3C[C@@H](C(=O)NC4CCCc5ccccc54)N(C(=O)[C@@H](NC(=O)[C@H](C)NC)C(C)(C)C)C3)C2)CC1C(=O)N[C@@H]1CCCc2ccccc21)C(C)(C)C` (stereo partly shown) [Compound P3-17], for which the IC50 turned out to be 0.002 µM.

For the compound `CN[C@@H](C)C(=O)N[C@H](C(=O)N1C[C@@H](NC(=O)c2cccc(C(=O)N[C@H]3C[C@@H](C(=O)NC4CCCC5CCCCC54)N(C(=O)[C@@H](NC(=O)[C@H](C)NC)C(C)(C)C)C3)c2)C[C@H]1C(=O)NC1CCCC2CCCCC21)C(C)(C)C` (stereo partly shown) [Compound P3-59], the IC50 worked out at 0.45 µM.
